# Test results from patent US11505579B2, “Methods of treatment and related compositions” (ASCEND BIOPHARMACEUTICALS LTD, priority 2020, dated 2022).
# Columns and labels:
# B16F10 tumours = assay: Tumour growth and survival of B16F10 tumour-bearing mice (B16F10-e357 study); format: in vivo, mouse; settings: for mice alive after day 12: culled at ethical end point
# Experimental: The B16F10 murine colon carcinoma cell line was maintained in DMEM medium containing 10% fetal bovine serum, 2 mM glutamine, 100 units/mL sodium penicillin G, 25 μg/mL gentamicin, and 100 μg/mL streptomycin sulfate. The tumour cells were cultured in tissue culture flasks in a humidified incubator at 37° C., in an atmosphere of 5% CO2 and 95% air.
# B16F10 cells were harvested during log phase growth and resuspended in PBS. Each mouse was injected subcutaneously in the right flank with 5×10^5 cells (in a 0.1 mL cell suspension). Tumours were calipered in two dimensions to monitor growth as their mean volume approached the desired 30 to 60 mm^3 range. Tumour size, in mm^3, was calculated from:
# [formula] where w=width and l=length, in mm, of the tumour. Tumour weight can be estimated based on the assumption that 1 mg is equivalent to 1 mm^3 of tumour volume.
# Eight days after tumour cell implantation, on Day 1 of the study, animals were sorted into eight groups (n=10 per group) according to tumour volume, with individual tumour volumes ranging from 32 to 63 mm^3 and group mean tumour volumes ranging from 41 to 42 mm^3. Tumour progression was monitored using caliper measurements three times weekly for the duration of the study.
# Vismodegib and Ad5-mIFNg (stock concentration 3.3×10^12 viral particles/mL) were stored at −80° C. prior to formulation. On each day of dosing, Vismodegib was dissolved in vehicle 2 (75% PEG400:25% D5W (5% dextrose in water)) to obtain 5 mg/mL and 10 mg/mL dosing solutions which delivered a dose of 50 mg/kg and 100 mg/kg when administered in a volume of 10 mL/kg (0.2 mL per 20 g mouse), adjusted to the body weight of each animal.
# On the first day of dosing, Ad5-mIFNg was thawed rapidly and diluted in vehicle 1 (1 M saccharose, 54 mg/L Tween® 80, 10 mM Tris, 1 mM MgCl2, 150 mM NaCl, pH 8) to obtain dosing solutions of 5×10^11 particles/mL and 2×10^11 particles/mL, which delivered 1×10^10 particles/animal when dosed in a fixed volume of 20 μL and 50 μL per animal, respectively.
# On Day 1 of the study, female mice bearing established B16F10 tumours were sorted into eight groups (n=10 per group) and began dosing according to the treatment plan summarized in Table 2. Vehicle 1 and Ad5-mIFNg (1×10^10 particles per animal) were administered intratumourally (itu) in a fixed volume of either 20 μL or 50 μL; vehicle 2 and Vismodegib were administered orally (po) in a volume of 10 mL/kg (0.2 mL per 20 g mouse), adjusted to the body weight of each animal. The groups were as follow:
# Group 1 served as the control group and received 20 μL vehicle 1 itu once a day (qd) for three days (qd×3) and vehicle 2 po qd×7.
# Group 2 received 20 μL vehicle 1 itu qd×3 and 50 mg/kg vismodegib po qd×7.
# Group 3 received 1×10^10 particles/animal Ad5-mIFNg in 20 μL itu qd×3 and vehicle 2.
# Group 4 received 1×10^10 particles/animal Ad5-mIFNg 1 itu qd×3 and 50 mg/kg vismodegib 2 po qd×7.
# Group 5 received 20 μL vehicle 1 itu once a week for a week (qwk×1) followed by 50 μL vehicle 1 itu qwk×1 (starting on Day 8) in addition to vehicle 2 po three times a week (tiwk) to Day 10.
# Group 6 received 20 μL vehicle 1 itu once a week for a week (qwk×1) followed by 50 μL vehicle 1 itu qwk×1 (starting on Day 8) and 100 mg/kg Vismodegib in vehicle 2 po tiwk to Day 13. […]
# [1] = tested on: operable basal cell carcinoma; settings: Vismodegib 150 mg daily over 12 weeks; Sofen et al. (2015); cited from earlier work
smiles,measurement,setting,value
CS(=O)(=O)c1ccc(C(=O)Nc2ccc(Cl)c(-c3ccccn3)c2)c(Cl)c1 [Vismodegib],tumour growth compared to the control vehicle treated groups,"B16F10 tumours; G2: Vismodegib 50 mg/kg po qd×7, vehicle 1 itu qd×3",did not significantly reduce tumour growth
same,mice alive after day 12,B16F10 tumours; G2: Vismodegib 50 mg/kg po qd×7,none
same,mice still alive on day 36 (number of mice),"B16F10 tumours; G2: Vismodegib only 50 mg/kg po qd×7, day 36",no mice
same,tumour growth compared to the control vehicle treated groups,"B16F10 tumours; G6: Vismodegib 100 mg/kg po tiwk×3, vehicle 1 itu",did not significantly reduce tumour growth
same,mice alive after day 12,B16F10 tumours; G6: Vismodegib 100 mg/kg po tiwk×3,none
same,loco-regional CHC,[1],16%
